The experiment has as its system melanoma lesions. The experiment is described as follows: CD8/Ki67/melanoma staining with nearest neighbor spatial analysis of biopsies. It is filed as in vivo, human. The procedure: Tumor samples obtained from melanoma patients were formalin-fixed and paraffin-embedded (FFPE) according to known procedures. FFPE tissue sections were baked for 1 hour at 60° C. The slides were dewaxed and stained on a Leica BOND Rx stainer (Leica, Buffalo Grove, Ill.) using Leica Bond reagents for dewaxing (Dewax Solution), antigen retrieval and antibody stripping (Epitope Retrieval Solution 2), and rinsing after each step (Bond Wash Solution). A high stringency wash was performed after the secondary and tertiary applications using high-salt TBST solution (0.05 M Tris, 0.3M NaCl, and 0.1% Tween-20, pH 7.2-7.6).
Multiplex IHC staining was analyzed using HALO™ spatial analysis tools, and the entire tumor area of each specimen was scored. (See Tunstall, “Quantifying Immune Cell Distribution in the Tumor Microenvironment Using HALO™ Spatial Analysis Tools,” Application Note, July […], (Indica Labs), accessed Nov. 1, 2017, on https://thepathologist.com/fileadmin/issues/App_Notes/0016-010-halo-app-note.pdf). See also Sherry et al., Cancer Research 77(13) Supp: Abstract 2937 (2017).
Slides were sequentially stained with antibody panels after rounds of heat-induced epitope retrieval and detected by antibody-binding HRP-containing polymers in conjunction with fluorescent tyramide substrate (Opal, Perkin-Elmer). DAPI was used as a nuclear counterstain. Fluorochromes with spectral overlap were imaged using spectral deconvolution and autofluorescence-subtraction (Vectra 3.0, Perkin-Elmer). Whole-slide scans were imaged using the Aperio-FL System (Leica Biosystems) and transferred into Halo for quantitative digital image analysis. After the cells were visualized based on nuclear recognition (DAPI stain), the software measured fluorescence intensity of the estimated cytoplasmic areas of each cell. A mean intensity threshold above background was used to determine positivity for each fluorochrome within the cytoplasm, thereby, defining cells as either positive or negative for each marker. The positive cell data was then used to define colocalized populations and to perform nearest neighbor spatial analysis.
Staining for CD4, CD8, PD-1, PD-L1, CD163/CD68 (macrophage), FoxP3, Ki-67, and melanoma cells was accomplished using the antibodies listed in TABLE 3 and 4. OPAL Polymer HRP Mouse plus Rabbit (Perkin-Elmer, Hopkington, Mass.) was used for all secondary applications. […]
Representative distance measurements between CD8^+ T cells and their nearest melanoma cell neighbors are shown in FIG. 13 (Day 1), FIG. 14 (Week 4), and FIG. 15 (End of treatment). Whole slide scans were performed using a fluorescence slide scanner (Aperio-FL, 20× objective). […]

Turning to `NCCCCN(Cc1nc2ccccc2[nH]1)[C@H]1CCCc2cccnc21` [X4P-001], under “after 4 weeks of monotherapy, Day 1 3,826”, the “number of unique neighbors” value is reported as 5,239. In addition, the “average distance between CD8+ T cells and the nearest tumor cell” value (after 4 weeks of monotherapy, Day 1 baseline 95) amounted to 43 microns. Moreover, under “patient 5, entire tissue sample, after monotherapy”, the “CD8+ T cell density” value is “increased”. Further, where the note is “patient 5, entire tissue sample, after monotherapy, stronger impact”, the “proliferating CD8+ T cell (Ki67+) density” value is recorded as “increased”.

For the origin of these results see US20210349099A1, “CANCER BIOMARKERS AND METHODS OF USE THEREOF” (X4 Pharmaceuticals, Inc., priority 2017, published 2021).
